Measurements from patent US4387098A, “Imidazo[1,2-a]quinoline derivatives useful as anxiolytics” (Roussel Uclaf, priority 1981, dated 1983).

Molecular target: benzodiazepine receptor
Assay: benzodiazepine receptor affinity, [^3 H] flunitrazepam radio receptor binding (modified Squires and Braestrup) on rat forebrain membrane preparations
Details: 0.6 nM [^3 H] flunitrazepam, read-out: IC50, inhibition of the specific binding of [^3 H] flunitrazepam by 50%
Protocol: A. The affinity of the compounds for the benzodiazepine receptor was assessed using the radioligand [^3 H] flunitrazepam and modifications of the original radio receptor binding method of Squires and Braestrup (Nature, 1977, Vol. 266, p. 732). The values of Table V are nanomolar concentrations of test compound which inhibited the specific binding of 0.6 nM[^3 H] flunitrazepam to rat forebrain membrane preparations by 50% (IC50 nM).

Point of comparison: `CCCCc1ccc2c(c1)c(OC)cc1nc(C(=O)c3ccccc3)cn12` [Example 16], IC50 57 nM. Against it:
- COc1cc2nc(C(=O)c3ccccc3)cn2c2ccc(Oc3ccccc3)cc12 [Example 27] — 3.7-fold higher, 210 nM
- COc1cc2nc(C(=O)c3ccccc3)cn2c2cc(Cl)ccc12 [Example 22] — 6-fold higher, 340 nM
- CCc1ccc2c(c1)c(OC)cc1nc(C(=O)c3ccccn3)cn12 [Example 30] — 1.6-fold higher, 92 nM
- COc1cc2nc(C(=O)c3ccccc3)cn2c2ccc(C(C)C)cc12 [Example 15] — 2.3-fold lower, 25 nM
- COc1cc2nc(C(=O)c3ccccc3)cn2c2c(OC)cccc12 [Example 19] — 11-fold higher, 630 nM
- COc1ccc2c(OC)cc3nc(C(=O)c4ccccc4)cn3c2c1 [Example 3] — 88-fold higher, 5000 nM
- CCCCOc1cc2nc(C(=O)c3ccccc3)cn2c2ccccc12 [Example 10] — 18-fold higher, 1000 nM
- COc1ccc2c(c1)c(OC)cc1nc(C(=O)c3ccccc3)cn12 [Example 14] — within 1.5-fold, 51 nM
- CCc1ccc(C(=O)c2cn3c(cc(OC)c4cc(CC)ccc43)n2)cc1 [Example 29] — within 1.5-fold, 51 nM
- COc1cc2nc(C(=O)c3ccccc3)cn2c2ccc(C)cc12 [Example 13] — 2.7-fold lower, 21 nM
- COc1cc2nc(C(=O)c3ccccc3)cn2c2ccc(C3CCCCC3)cc12 [Example 26] — 180-fold higher, 10000 nM
- COc1cc2nc(C(=O)c3ccccc3)cn2c2cccc(C)c12 [Example 25] — 5.2-fold lower, 11 nM
- CSc1cc2nc(C(=O)c3ccccc3)cn2c2ccccc12 [Example 2, (5-methylthio-imidazo[1,2-a]quinolin-2-yl)-phenyl-methanone] — 8.8-fold higher, 500 nM
- CCOc1cc2nc(C(=O)c3ccccc3)cn2c2ccccc12 [Example 9] — 9.5-fold higher, 540 nM
- CCc1ccc(C(=O)c2cn3c(cc(OC)c4ccccc43)n2)cc1 [Example 11, (4-ethyl-phenyl)(5-methoxy-imidazo[1,2-a]quinolin-2-yl)-methanone] — within 1.5-fold, 67 nM
- COc1cc2nc(C(=O)c3ccccc3)cn2c2ccccc12 [Example 4, (5-methoxy-imidazo[1,2-a]quinolin-2-yl)-phenyl-methanone] — 2.1-fold lower, 27 nM
- CCc1ccc2c(c1)c(OC)cc1nc(C(=O)c3ccc(OC)cc3)cn12 [Example 28] — 1.9-fold lower, 30 nM
- CCCOc1cc2nc(C(=O)c3ccccc3)cn2c2ccccc12 [Example 12] — 18-fold higher, 1000 nM
- COc1cc2nc(C(=O)c3ccccc3)cn2c2c(Cl)cccc12 [Example 23] — 2.3-fold higher, 132 nM
- COc1cc2nc(C(=O)c3ccccc3)cn2c2cc(C)ccc12 [Example 24] — 5.1-fold higher, 290 nM
- COc1ccc(C(=O)c2cn3c(cc(OC)c4ccccc43)n2)cc1 [Example 18] — 1.5-fold lower, 37 nM
- COc1cc2nc(C(=O)c3cccs3)cn2c2ccccc12 [Example 21] — 2.4-fold lower, 24 nM
- COc1cc2nc(C(=O)c3ccccc3)cn2c2ccc(F)cc12 [Example 31] — within 1.5-fold, 74 nM
- CCc1ccc2c(c1)c(OC)cc1nc(C(C)=O)cn12 [Example 6] — 23-fold higher, 1300 nM
- CC(C)Oc1cc2nc(C(=O)c3ccccc3)cn2c2ccccc12 [Example 8, (5-isopropoxy-imidazo[1,2-a]quinolin-2-yl)-phenyl-methanone] — 8.2-fold higher, 470 nM
- COc1cc2nc(C(=O)c3ccc(Cl)cc3)cn2c2ccccc12 [Example 20] — 1.7-fold higher, 96 nM
- CCc1ccc2c(c1)c(OC)cc1nc(C(=O)c3ccccc3)cn12 [Example 1] — 4.1-fold lower, 14 nM
- COc1cc2nc(C(=O)c3ccc(C)cc3)cn2c2ccccc12 [Example 17] — 3-fold lower, 19 nM
- COc1cc2nc(C(=O)c3ccccc3)cn2c2ccc(Cl)cc12 [Example 7] — 11-fold higher, 600 nM

System: not listed separately
Assay: anxiolytic activity, one-day lick shock method of Vogel et al
Type: in vivo
Details: po, 24 h, orally, read-out: minimum effective dose (MED) at which there was an observed increase in shocks above control
Protocol: B. Screening for anxiolytic activity was carried out by the one-day lick shock method of Vogel et al [Psychopharmacologia, 1971 Vol. 21, p. 1]. The values of Table VI are the minimum effective doses (MED) in mg/kg orally at which there was an observed increase in shocks above control.

Point of comparison: `COc1cc2nc(C(=O)c3ccccc3)cn2c2ccc(C)cc12` [Example 13], minimal effective dose 25 mg/kg. Against it:
- COc1cc2nc(C(=O)c3ccccc3)cn2c2ccc(C(C)C)cc12 [Example 15] — 2.5-fold lower, 10 mg/kg
- COc1cc2nc(C(=O)c3ccccc3)cn2c2ccccc12 [Example 4, (5-methoxy-imidazo[1,2-a]quinolin-2-yl)-phenyl-methanone] — the same, 25 mg/kg
- CCCCc1ccc2c(c1)c(OC)cc1nc(C(=O)c3ccccc3)cn12 [Example 16] — the same, 25 mg/kg
- CCc1ccc2c(c1)c(OC)cc1nc(C(C)=O)cn12 [Example 6] — within 1.5-fold, 20 mg/kg
- CCc1ccc2c(c1)c(OC)cc1nc(C(=O)c3ccccc3)cn12 [Example 1] — within 1.5-fold, 20 mg/kg
